Read-outs that look alike come from different tables or passages of the source.
Key:
[1] = test system: osteoblasts of rat fetal calvaria; format: cell-based; conditions: for Alkaline phosphatase activity: mean ± SD n=4; for Effect on alkaline phosphatase activity (in words): at 10^−8M
[2] = test system: osteoblasts of rat fetal calvaria; conditions: for Calcified area / No. of bone tuberculum: mean ± SD n=4; for No. of bone tuberculum: Tables 1-2 experiment (non-treated 146.5 ± 10.9)
[3] = 10^−8M, Table 1 experiment (non-treated 0.044 ± 0.014)
[4] = 10^−8M, Table 3 experiment (non-treated 0.084 ± 0.008)
[5] = 10^−8M, Table 3 experiment (non-treated 4.46 ± 0.83)

Q: How did the Alkaline phosphatase activity [1, 3] turn out when `C[C@@H]1C[C@H]2[C@@H]3CCC4=CC(=O)C=C[C@]4(C)[C@@]3(F)[C@@H](O)C[C@]2(C)[C@@]1(O)C(=O)CO` [Dexamethasone, reference compound] was run?
A: 0.181 ± 0.018 μM/min/well

Q: And the Alkaline phosphatase activity [1, 4]?
A: 0.143 ± 0.015 μM/min/well

Q: And the Calcified area [2, 5]?
A: 13.82 ± 1.20 mm^2/well

Q: What about the Calcified area ([2]; 10^−8M, Table 4 experiment (non-treated 2.56 ± 0.11)) of the same compound?
A: 12.17 ± 1.05 mm^2/well

Q: What about the “No. of bone tuberculum” value ([2]; 10^−8M) of the same compound?
A: 307.3 ± 34.1 per well

Q: With “Gly-Arg-Gly-Asp-Ser (GRGDS) [reference compound]” as the compound, how does the “No. of bone tuberculum” value ([2]; 10^−4M) read?
A: 168.3 ± 17.1 per well

Q: What about the “No. of bone tuberculum” value ([2]; 10^−6M) of the same compound?
A: 166.5 ± 10.6 per well

Q: And the “Effect on calcification (in words)” value ([2]; at 10^−4M)?
A: completely prevent

Q: What about the “Effect on calcification (in words)” value ([2]; at 10^−6M) of the same compound?
A: promote

Q: What about the “Effect on the number of bone tuberculum (in words)” value ([2]; at 10^−6M and 10^−4M ("these concentrations")) of the same compound?
A: tendency to be increased

Q: What does the source list for Kistrin?
A: Alkaline phosphatase activity ([1]; 10^−5M, Table 3 experiment (non-treated 0.084 ± 0.008)): 0.085 ± 0.009 μM/min/well; Alkaline phosphatase activity ([1]; 10^−6M, Table 1 experiment (non-treated 0.044 ± 0.014)): 0.040 ± 0.003 μM/min/well; Alkaline phosphatase activity ([1]; 10^−6M, Table 3 experiment (non-treated 0.084 ± 0.008)): 0.119 ± 0.008 μM/min/well; Alkaline phosphatase activity ([1]; 10^−7M, Table 1 experiment (non-treated 0.044 ± 0.014)): 0.051 ± 0.007 μM/min/well; Alkaline phosphatase activity ([1]; 10^−7M, Table 3 experiment (non-treated 0.084 ± 0.008)): 0.133 ± 0.006 μM/min/well; Alkaline phosphatase activity [1, 3]: 0.067 ± 0.005 μM/min/well; Alkaline phosphatase activity [1, 4]: 0.126 ± 0.006 μM/min/well; Alkaline phosphatase activity ([1]; 10^−9M, Table 1 experiment (non-treated 0.044 ± 0.014)): 0.051 ± 0.008 μM/min/well; Effect on alkaline phosphatase activity (in words) [1]: promote; Effect on alkaline phosphatase activity (in words) ([1]; listed as kistrin): Promoted; Calcified area ([2]; 10^−5M, Table 3 experiment (non-treated 4.46 ± 0.83)): 4.54 ± 0.88 mm^2/well; Calcified area ([2]; 10^−6M, Table 3 experiment (non-treated 4.46 ± 0.83)): 7.93 ± 1.37 mm^2/well; No. of bone tuberculum ([2]; 10^−6M): 147.8 ± 14.2 per well; Calcified area ([2]; 10^−7M, Table 3 experiment (non-treated 4.46 ± 0.83)): 11.25 ± 1.04 mm^2/well; No. of bone tuberculum ([2]; 10^−7M): 189.5 ± 16.3 per well; Calcified area [2, 5]: 9.87 ± 1.04 mm^2/well; No. of bone tuberculum ([2]; 10^−8M): 161.8 ± 19.2 per well; No. of bone tuberculum ([2]; 10^−9M): 153.8 ± 12.3 per well; Effect on calcification (in words) ([2]; at 10^−6M): prevented completely; Effect on the number of bone tuberculum (in words) ([2]; at 10^−6M): not observed to affect; Effect on calcification (in words) ([2]; at 10^−7 and 10^−8M): promote; Effect on the number of bone tuberculum (in words) ([2]; at 10^−7 and 10^−8M): promote

— US6344439B1, “Agents for promoting bone formation” (priority 1995, dated 2002)
